According to patent US6545049B1, “Dimer-selective RXR modulators and methods for their use” (Ligand Pharmaceuticals Incorporated, priority 1995, dated 2003):

How the values were obtained:
RXRβ [1] = target: T1, RXRβ (Mus musculus, UniProt P28704); test: RXR binding, RXRβ; settings: -v- tritiated LGD1069 and tritiated 9-cis retinoic acid
T1 sequence (P28704 1-520): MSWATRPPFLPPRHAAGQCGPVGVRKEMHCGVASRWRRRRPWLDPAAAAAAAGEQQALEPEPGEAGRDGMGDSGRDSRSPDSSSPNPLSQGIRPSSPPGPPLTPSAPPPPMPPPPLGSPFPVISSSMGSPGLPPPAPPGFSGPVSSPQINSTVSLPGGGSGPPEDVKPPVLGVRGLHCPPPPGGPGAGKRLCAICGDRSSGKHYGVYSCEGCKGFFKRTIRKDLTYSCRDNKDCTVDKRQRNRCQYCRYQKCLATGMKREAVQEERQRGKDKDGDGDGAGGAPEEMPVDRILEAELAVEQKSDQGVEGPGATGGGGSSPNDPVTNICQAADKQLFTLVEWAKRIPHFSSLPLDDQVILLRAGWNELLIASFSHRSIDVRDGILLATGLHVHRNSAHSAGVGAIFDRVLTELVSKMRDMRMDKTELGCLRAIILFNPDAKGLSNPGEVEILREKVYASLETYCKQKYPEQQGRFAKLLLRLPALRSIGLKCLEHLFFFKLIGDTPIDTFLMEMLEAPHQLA
Experimental: (§1) Non-specific binding was defined as that binding remaining in the presence of 500 nM of the appropriate unlabelled compound. At the end of the incubation period, bound from free ligand were separated. The amount of bound tritiated retinoids was determined by liquid scintillation counting of an aliquot (700 μL) of the supernatant fluid or the hydroxylapatite pellet.
(§2) After correcting for non-specific binding, IC50 values were determined. […] The IC50 value was determined graphically from a log-logit plot of the data. The Kd values were determined by application of the Cheng-Prussof equation to the IC50 values, the labeled ligand concentration and the Kd of the labeled ligand.

RXRα [2] = target: T2, RXRα (Homo sapiens, UniProt P19793); test: RXR homodimer co-transfection assay, antagonist mode, RXRα; settings: read-out: RXRα Potency IC50; antagonist potency in the presence of the known RXR agonist LGD1069; CV-1 cells
T2 sequence (P19793 1-462): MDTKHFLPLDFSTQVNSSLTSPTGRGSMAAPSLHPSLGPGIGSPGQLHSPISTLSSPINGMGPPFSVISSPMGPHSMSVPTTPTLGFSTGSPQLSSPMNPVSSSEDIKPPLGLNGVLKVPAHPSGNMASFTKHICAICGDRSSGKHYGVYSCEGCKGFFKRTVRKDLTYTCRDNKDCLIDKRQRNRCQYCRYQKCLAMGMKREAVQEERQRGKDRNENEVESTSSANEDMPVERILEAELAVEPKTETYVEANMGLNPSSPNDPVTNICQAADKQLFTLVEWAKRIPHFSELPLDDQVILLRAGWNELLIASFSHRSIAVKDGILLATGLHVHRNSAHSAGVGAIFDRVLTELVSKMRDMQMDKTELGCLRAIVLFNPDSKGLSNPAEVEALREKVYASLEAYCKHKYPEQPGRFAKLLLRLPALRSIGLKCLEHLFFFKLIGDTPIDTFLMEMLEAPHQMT

RXRβ [3] = target: T1, RXRβ; test: RXR homodimer co-transfection assay, antagonist mode, RXRβ; settings: read-out: RXRβ Potency IC50; antagonist potency in the presence of the known RXR agonist LGD1069; CV-1 cells
RXRα [4] = target: T2, RXRα; test: RXR binding, RXRα; settings: -v- tritiated LGD1069 and tritiated 9-cis retinoic acid
Experimental: as §1, §2

RXRγ [5] = target: T3, RXRγ (Mus musculus, UniProt P28705); test: RXR homodimer co-transfection assay, antagonist mode, RXRγ; settings: read-out: RXRγ Potency IC50; antagonist potency in the presence of the known RXR agonist LGD1069; CV-1 cells
T3 sequence (P28705 1-463): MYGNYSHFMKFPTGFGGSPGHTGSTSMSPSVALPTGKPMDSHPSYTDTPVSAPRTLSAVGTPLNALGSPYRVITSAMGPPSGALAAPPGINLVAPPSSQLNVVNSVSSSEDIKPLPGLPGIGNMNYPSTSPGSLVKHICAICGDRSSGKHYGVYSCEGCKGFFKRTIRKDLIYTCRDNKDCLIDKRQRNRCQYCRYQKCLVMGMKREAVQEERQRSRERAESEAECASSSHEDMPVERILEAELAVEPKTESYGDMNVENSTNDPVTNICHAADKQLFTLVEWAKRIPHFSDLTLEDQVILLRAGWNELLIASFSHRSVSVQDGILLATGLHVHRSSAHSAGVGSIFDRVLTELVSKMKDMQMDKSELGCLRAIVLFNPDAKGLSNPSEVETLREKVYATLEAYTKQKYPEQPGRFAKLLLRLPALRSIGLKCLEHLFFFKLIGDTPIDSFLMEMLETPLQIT

RXRγ [6] = target: T3, RXRγ; test: RXR binding, RXRγ; settings: -v- tritiated LGD1069 and tritiated 9-cis retinoic acid
Experimental: as §1, §2

NB4 cells = test: NB4 myeloid leukemic cell differentiation; format: cell-based; settings: Compound 122 1 mM, TTNPB, 9-cis retinoic acid, LG100268 100 nM, FIG. 3
Experimental: All points were performed in triplicate for each experiment and varied less than 20%. Each experiment was repeated at least three times with similar results.

RXRα:PPARα heterodimer = target: T4, RXRα:PPARα heterodimer (Homo sapiens, UniProt P19793); test: RXR heterodimer co-transfection assay (RXRα and PPARα, PPARα response element reporter)
T4 sequence (P19793 1-462): T2 sequence (P19793 1-462)
T4 sequence (Q07869 1-468 partner): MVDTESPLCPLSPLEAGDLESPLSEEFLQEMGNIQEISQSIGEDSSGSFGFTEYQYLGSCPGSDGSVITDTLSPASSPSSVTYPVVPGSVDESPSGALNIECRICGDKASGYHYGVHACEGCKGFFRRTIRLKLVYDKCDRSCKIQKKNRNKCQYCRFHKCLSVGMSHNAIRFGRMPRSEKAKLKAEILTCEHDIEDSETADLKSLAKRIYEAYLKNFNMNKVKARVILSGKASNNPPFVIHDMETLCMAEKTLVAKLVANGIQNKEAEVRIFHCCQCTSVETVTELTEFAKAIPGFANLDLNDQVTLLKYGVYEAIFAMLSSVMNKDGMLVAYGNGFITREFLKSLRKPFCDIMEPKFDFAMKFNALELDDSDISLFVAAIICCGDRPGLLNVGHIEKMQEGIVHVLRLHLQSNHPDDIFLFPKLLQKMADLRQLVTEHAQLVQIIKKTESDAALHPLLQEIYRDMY

RXRα:RXRα homodimer = target: T5, RXRα:RXRα homodimer (Homo sapiens, UniProt P19793); test: Gal4-receptor chimera transactivation assay, RXR homodimer
T5 sequence (P19793 227-458 limits assumed): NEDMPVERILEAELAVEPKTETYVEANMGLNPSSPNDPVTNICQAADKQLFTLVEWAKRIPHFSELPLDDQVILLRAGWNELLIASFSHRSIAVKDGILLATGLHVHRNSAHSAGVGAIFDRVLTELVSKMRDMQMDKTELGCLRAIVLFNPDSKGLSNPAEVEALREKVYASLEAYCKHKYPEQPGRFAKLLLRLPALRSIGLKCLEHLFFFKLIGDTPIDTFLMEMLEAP
Experimental: (§3) Briefly, CV-1 cells were transfected in 12 well multi-well plates using 0.1 μg of each receptor and 0.5 μg of reporter per well. Each well was also transfected with 0.5 μg of the β-Gal expression plasmid as an internal control for transfection efficiency. Total plasmid per well was 2 μg made up using the plasmid pGEM. […] Receptor ligand binding domains (LBDs) were fused in-frame downstream to the Gal4 cDNA to produce Gal4-receptor fusion proteins. To express only the receptor LBDs, the LBD was cloned directly downstream to the CMV promoter.
Cells were then washed 2X with PBS and lysed using Promega lysis buffer and assayed for luciferase activity and β-galactosidase activity. All results were normalized against β-Gal. Each set was done in triplicates and each experiment was carried out at least 3 separate times with similar results.

RXRα:RARα heterodimer = target: T6, RXRα:RARα heterodimer (Homo sapiens, UniProt P19793); test: Gal4-receptor chimera transactivation assay, RXRα:RARα heterodimer
T6 sequence (P19793 227-458 limits assumed): T5 sequence (P19793 227-458 limits assumed)
T6 sequence (P10276 183-417 partner limits assumed): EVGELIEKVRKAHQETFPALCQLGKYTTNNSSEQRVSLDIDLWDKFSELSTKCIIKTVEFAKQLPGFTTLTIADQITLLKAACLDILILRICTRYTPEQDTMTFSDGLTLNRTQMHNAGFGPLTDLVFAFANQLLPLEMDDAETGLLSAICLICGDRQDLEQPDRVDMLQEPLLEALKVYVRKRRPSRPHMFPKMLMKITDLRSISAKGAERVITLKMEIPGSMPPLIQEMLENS
Experimental: as §3
Cells were then washed 2X with PBS and lysed using Promega lysis buffer and assayed for luciferase activity and β-galactosidase activity. All results were normalized against β-Gal.
The above assay system was used because reporter activity is dependent upon the binding of the Gal4 DNA binding domain to copies of its binding site, the UAS (upstream activation sequence), located upstream of the luciferase cDNA. […] Since endogenous receptors lack the Gal4 DNA binding domain, no background activation of the reporter is observed, however, Gal4-receptor LBD fusion proteins can bind the Gal4 site and be activated in a receptor ligand dependent manner. This system, therefore, completely eliminates the low background activity of endogenous receptors in CV-1 cells making it possible to test compound activity on exogenously added receptors.

| Molecule | Kd (RXRβ [1]) [nM] | IC50 (RXRα [2]) [nM] | IC50 (RXRβ [3]) [nM] | Kd (RXRα [4]) [nM] | IC50 (RXRγ [5]) [nM] | Kd (RXRγ [6]) [nM] | further results |
| --- | --- | --- | --- | --- | --- | --- | --- |
| 4-[(3-n-propyl-5,6,7,8-tetrahydro-5,5,8,8-tetramethyl-2-naphthyl)ethenyl]benzoic acid [Compound 102] | 426 | 386 | 659 | 282 | 1670 | 683 |  |
| 4-[(3-propoxy-5,6,7,8-tetrahydro-5,5,8,8-tetramethyl-2-naphthyl)carbonyl]benzoic acid O-methyloxime [Compound 110] | 77 | 80 | 217 | 40 | 211 | 66 |  |
| 4-[(3-propoxy-5,6,7,8-tetrahydro-5,5,8,8-tetramethyl-2-naphthyl)carbonyl]benzoic acid oxime [Compound 109] | 33 | 210 | 193 | 37 | 394 | 47 |  |
| CC1=C(/C=C/C(C)=C\C=C\C(C)=C\C(=O)O)C(C)(C)CCC1 [9-cis retinoic acid] |  |  |  |  |  |  | differentiation of NB4 cells (in words) (NB4 cells): stimulate NB4 cells to differentiate |
| CC(C)(Oc1ccc(Cl)cc1)C(=O)O [Clofibric acid, clofibric acid, reference compound] |  |  |  |  |  |  | EC50 (RXRα:PPARα heterodimer): 40000 nM; Fold activation (RXRα:PPARα heterodimer; normalized luciferase values at 10−4M (clofibric acid) divided by values with vehicle): 6.5 fold |
| CCCc1cc2c(cc1C1(c3ccc(C(=O)O)cc3)CC1)C(C)(C)CCC2(C)C [Compound 103, 4-[(3-n-propyl-5,6,7,8-tetrahydro-5,5,8,8-tetramethyl-2-naphthyl)cyclopropyl]benzoic acid] | 846 | 498 | 701 | 389 | 1670 | 936 |  |
| CC(C=CC=C(C)c1cc2c(cc1OCc1ccccc1)C(C)(C)CCC2(C)C)=CC(=O)O [Compound 128, (2E, 4E, 6Z)-7-[3-benzyloxy-5,6,7,8-tetrahydro-5,5,8,8-tetramethyl-2-naphthalen-2-yl]-3-methylocta-2,4,6-trienoic acid] | 23 |  |  | 9 |  | 27 | EC50 (RXRα:PPARα heterodimer): 200 nM; Fold activation (RXRα:PPARα heterodimer; normalized luciferase values at 10−5M divided by values with vehicle): 4 fold |
| C/C(=C/C=C/C(C)=C/C(=O)O)c1cc2c(cc1OCc1ccc(C)cc1)C(C)(C)CCC2(C)C [Compound 130, (2E, 4E, 6Z)-7-[3-(4-methylbenzyloxy)-5,6,7,8-tetrahydro-5,5,8,8-tetramethyl-2-naphthalen-2-yl]-3-methylocta-2,4,6-trienoic acid] |  |  |  |  |  |  | Fold activation (RXRα:RXRα homodimer; CV-1 cells, 100 nM LG100268, LGD1069, 500 nM Compounds 117, 122, 130, 1 mM Compound 131, n.e. = no effect): n.e.; agonist activity on RXR homodimers in the GAL4 transfection assay (in words) (RXRα:RXRα homodimer; compound alone): inactive; antagonist activity on RXR homodimers in the GAL4 transfection assay (in words) (RXRα:RXRα homodimer; in combination with either LGD1069 or LG100268): strong antagonists; Fold Repression (RXRα:RXRα homodimer; in combination with either LGD1069 or LG100268, 500 nM Compounds 117, 122, 130, 1 mM Compound 131): 25-75 fold; effect on RXRα:RARα heterodimer in combination with TTNPB (in words) (RXRα:RARα heterodimer; combined with the RXR:RAR activator TTNPB, data not shown): slight increase in activation; agonist activity on RXRα:RARα heterodimers (in words) (RXRα:RARα heterodimer; compound alone): potent agonists |
| CCCOc1cc2c(cc1C1CC1C/C=C/C(C)=C/C(=O)O)C(C)(C)CCC2(C)C (stereo not shown) [Compound 152, (2E, 4E)-6-[2-(5,5,8,8-tetramethyl-3-propyloxy-5,6,7,8-tetrahydronaphthalen-2-yl)cyclopropan-1-yl]-3-methyl hexadienoic acid] | 45 | 195 | 337 | 8 | 428 | 21 |  |
| Cc1cc2c(cc1C1(c3ccc(C(=O)O)cn3)CC1)C(C)(C)CCC2(C)C [LG100268, 6-[1-(3,5,5,8,8-pentamethyl-5,6,7,8-tetrahydronaphthalen-2-yl)cyclopropyl]nicotinic acid] |  |  |  |  |  |  | differentiation of NB4 cells (in words) (NB4 cells): does not promote NB4 differentiation; differentiation of NB4 cells (in words) (NB4 cells; listed as LB100268): does not |
| (2E, 4E)-7-[(5,5,8,8-tetramethyl-3-heptyloxy-5,6,7,8-tetrahydronaphthalen-2-yl)cyclopropan-1-yl]-3-methyl heptadienoic acid [Compound 156] | 7 | 18 | 62 | 11 | 47 | 9 |  |
| (2E, 4E)-7-[(5,5,8,8-tetramethyl-3-propyloxy-5,6,7,8-tetrahydronaphthalen-2-yl)cyclopropan-1-yl]-3-methyl heptadienoic acid [Compound 155] | 9 | 24 | 53 | 9 | 37 | 8 |  |
